According to ChEMBL document CHEMBL6096736, “Development of a Highly Selective Ferroptosis Inducer Targeting GPX4 with 2-Ethynylthiazole-4-carboxamide as Electrophilic Warhead” (J Med Chem, 2025):
pIC50: −log10 of the molar value. The source made the active and inactive calls. The rule behind the calls is not given here.

How the values were obtained:
[1] = tested on: HT-1080; assay: Cytotoxicity against human HT-1080 cells assessed as cell viability incubated for 24 hrs by CCK-8 assay; conditions: HT-1080, 24 h
[2] = tested on: HT-1080; assay: Induction of ferroptosis in human HT-1080 cells assessed as reduction in cell viability incubated for 24 hrs in presence of Fer-1 by CCK-8 assay; conditions: HT-1080, 24 h
[3] = tested on: HT-1080; assay: Induction of morphological changes in human HT-1080 cells assessed as appearance of round shaped mitochondria by TEM analysis; format: functional, cell-based
[4] = tested on: HT-1080; assay: Induction of morphological changes in human HT-1080 cells assessed as […] of mitochondria cristas by TEM analysis; format: functional, cell-based
[5] = tested on: HT-1080; assay: Induction of ferroptosis in human HT-1080 cells assessed as increase in cellular ROS level at 0.1 uM incubated for 3 hrs by DCFH-DA staining based flow cytometry analysis; format: functional, cell-based
[6] = tested on: HT-1080; assay: Induction of ferroptosis in human HT-1080 cells assessed as increase in cellular LPO level at 0.1 uM incubated for 3 hrs by BIODPY-C11 probe based flow cytometry analysis; format: functional, cell-based
[7] = tested on: HT-1080; assay: Induction of ferroptosis in human HT-1080 cells assessed as increase in cellular MDA level at 0.1 uM incubated for 6 hrs; format: functional, cell-based
[8] = tested on: HT-1080; assay: Induction of ferroptosis in human HT-1080 cells assessed as increase in cellular MDA level at 0.1 uM incubated for 6 hrs in presence of Fer-1; format: functional, cell-based
[9] = tested on: HT-1080; assay: Cytotoxicity against human HT-1080 cells assessed as cell survival incubated for 24 hrs by CCK-8 assay; conditions: HT-1080, 24 h
[10] = tested on: HT-1080; assay: Cytotoxicity against human HT-1080 cells assessed as cell survival incubated for 24 hrs in presence of DFO by CCK-8 assay; conditions: HT-1080, 24 h
[11] = tested on: HepG2; assay: Cytotoxicity against human HepG2 cells
[12] = tested on: MCF7; assay: Cytotoxicity against human MCF7 cells
[13] = tested on: CAL-27; assay: Cytotoxicity against human CAL-27 cells
[14] = tested on: 4T1; assay: Cytotoxicity against mouse 4T1 cells
[15] = Cytotoxicity against human LO2 cells; format: toxicity, cell-based, L02
[16] = tested on: HT-1080; assay: Cytotoxicity against human HT-1080 cells in presence of Z-VAD-FMK
[17] = Half life in male Sprague-Dawley rat at 2 mg/kg, iv measured upto 36 hrs by LC-MS/MS analysis; format: ADME, organism-based; conditions: in vivo
[18] = Half life in male Sprague-Dawley rat at 20 mg/kg, po measured upto 36 hrs by LC-MS/MS analysis; format: ADME, organism-based; conditions: in vivo
[19] = Cmax in male Sprague-Dawley rat at 2 mg/kg, iv measured upto 36 hrs by LC-MS/MS analysis; format: ADME, organism-based; conditions: in vivo
[20] = Cmax in male Sprague-Dawley rat at 20 mg/kg, po measured upto 36 hrs by LC-MS/MS analysis; format: ADME, organism-based; conditions: in vivo
[21] = AUC (0 to t) in male Sprague-Dawley rat at 2 mg/kg, iv measured upto 36 hrs by LC-MS/MS analysis; format: ADME, organism-based; conditions: in vivo
[22] = AUC (0 to t) in male Sprague-Dawley rat at 20 mg/kg, po measured upto 36 hrs by LC-MS/MS analysis; format: ADME, organism-based; conditions: in vivo
[23] = Clearance in male Sprague-Dawley rat at 2 mg/kg, iv measured upto 36 hrs by LC-MS/MS analysis; format: ADME, organism-based; conditions: in vivo
[24] = Clearance in male Sprague-Dawley rat at 20 mg/kg, po measured upto 36 hrs by LC-MS/MS analysis; format: ADME, organism-based; conditions: in vivo
[25] = Oral bioavailability in male Sprague-Dawley rat at 20 mg/kg measured upto 36 hrs by LC-MS/MS analysis; format: ADME, organism-based; conditions: in vivo
[26] = tested on: HT-1080; assay: Antitumor activity against human HT-1080 cells xenografted in BALB/c mouse assessed as reduction in tumor weight at 15 to 30 mg/kg, ip administered for 6 days and measured after 2 weeks; format: functional, organism-based; conditions: dose 15-30 mg/kg, time 20.0 day
[27] = tested on: HT-1080; assay: Antitumor activity against human HT-1080 cells xenografted in BALB/c mouse assessed as tumor growth inhibition at 15 mg/kg, ip administered for 6 days and measured after 2 weeks; format: functional; conditions: HT-1080, 480 h, time 20 day, read-out: TGI
[28] = tested on: HT-1080; assay: Antitumor activity against human HT-1080 cells xenografted in BALB/c mouse assessed as tumor growth inhibition at 30 mg/kg, ip administered for 6 days and measured after 2 weeks; format: functional; conditions: HT-1080, 480 h, time 20 day, read-out: TGI
[29] = Toxicity in BALB/c mouse implanted with human HT-1080 cells assessed as change in body weight at 15 to 30 mg/kg, ip administered for 6 days and measured after 2 weeks; format: organism-based; conditions: in vivo, 480 h, dose 15-30 mg/kg, time 20 day
[30] = Acute toxicity in BALB/c mouse implanted with human HT-1080 cells assessed as change in ALP level at 15 to 30 mg/kg, ip administered for 7 days; format: organism-based; conditions: in vivo, 168 h, dose 15-30 mg/kg, time 7 day
[31] = Acute toxicity in BALB/c mouse implanted with human HT-1080 cells assessed as change in ALT level at 15 to 30 mg/kg, ip administered for 7 days; format: organism-based; conditions: in vivo, 168 h, dose 15-30 mg/kg, time 7 day
[32] = Acute toxicity in BALB/c mouse implanted with human HT-1080 cells assessed as change in AST level at 15 to 30 mg/kg, ip administered for 7 days; format: organism-based; conditions: in vivo, 168 h, dose 15-30 mg/kg, time 7 day
[33] = Acute toxicity in BALB/c mouse implanted with human HT-1080 cells assessed as change in CREA level at 15 to 30 mg/kg, ip administered for 7 days; format: organism-based; conditions: in vivo, 168 h, dose 15-30 mg/kg, time 7 day
[34] = Acute toxicity in BALB/c mouse implanted with human HT-1080 cells assessed as change in UREA level at 15 to 30 mg/kg, ip administered for 7 days; format: organism-based; conditions: in vivo, 168 h, dose 15-30 mg/kg, time 7 day
[35] = Acute toxicity in BALB/c mouse implanted with human HT-1080 cells assessed as heart damage at 15 to 30 mg/kg, ip administered for 7 days by H and E staining based analysis; format: organism-based; conditions: in vivo, 168 h, dose 15-30 mg/kg, time 7 day
[36] = Acute toxicity in BALB/c mouse implanted with human HT-1080 cells assessed as liver damage at 15 to 30 mg/kg, ip administered for 7 days by H and E staining based analysis; format: organism-based; conditions: in vivo, 168 h, dose 15-30 mg/kg, time 7 day
[37] = Acute toxicity in BALB/c mouse implanted with human HT-1080 cells assessed as spleen damage at 15 to 30 mg/kg, ip administered for 7 days by H and E staining based analysis; format: organism-based; conditions: in vivo, 168 h, dose 15-30 mg/kg, time 7 day
[38] = Acute toxicity in BALB/c mouse implanted with human HT-1080 cells assessed as lung damage at 15 to 30 mg/kg, ip administered for 7 days by H and E staining based analysis; format: organism-based; conditions: in vivo, 168 h, dose 15-30 mg/kg, time 7 day
[39] = Acute toxicity in BALB/c mouse implanted with human HT-1080 cells assessed as kidney damage at 15 to 30 mg/kg, ip administered for 7 days by H and E staining based analysis; format: organism-based; conditions: in vivo, 168 h, dose 15-30 mg/kg, time 7 day

C#Cc1nc(C(=O)N(c2ccc(-c3cnco3)cc2)[C@@H](C(=O)NC(C)(C)C)c2csc3ccccc23)cs1
pIC50 [1]: 8.52
pIC50 [2]: 5.13
Activity [3]: Active
Activity [4]: Active
Activity [5]: Active
Activity [6]: Active
Activity [7]: Active
Activity [8]: Weak_effect
pIC50 [9]: 7.66
pIC50 [10]: 5.40
pIC50 [11]: 7.25
pIC50 [12]: 6.35
pIC50 [13]: 5.57
pIC50 [14]: 7.05
pIC50 [15]: 5.29
pIC50 [16]: 9.70
half-life [17]: 1.05 h
half-life [18]: 2.37 h
Cmax [19]: 271 ng/mL
Cmax [20]: 20.8 ng/mL
AUC(0-t) at 36 h [21]: 122 ng·h/mL
AUC(0-t) at 36 h [22]: 79.4 ng·h/mL
clearance [23]: 282 mL/min/kg
CL/F [24]: 5670 mL/min/kg
bioavailability [25]: 6.67%
Activity [26]: Active
inhibition in vivo at 15 mg/kg [27]: 36.5%
inhibition in vivo at 30 mg/kg [28]: 49.4%
Activity [29]: Non-toxic
Activity [30]: Non-toxic
Activity [31]: Non-toxic
Activity [32]: Non-toxic
Activity [33]: Non-toxic
Activity [34]: Non-toxic
Activity [35]: Non-toxic
Activity [36]: Non-toxic
Activity [37]: Non-toxic
Activity [38]: Non-toxic
Activity [39]: Non-toxic
